“Also recorded” adds a separate entry of the source. One block for each compound: values may come before it.
Assays:
[1] = molecular target: α7 nAChRs in the monkey brain (Macaca mulatta, UniProt Q866A2); type: in vivo; conditions: monkey SPECT, pretreatment SSR180711 5.0 mg/kg i.v.
Procedure: Four monkeys (male, 7 year olds, 8 kg) were selected for SPECT imaging. Immediately after HPLC column purification, 50 µg (74 MBq) of the ^131I-CHIBA-1001 in 2 mL of normal saline were injected into the monkeys via intravenous administration after administration of saline (control) or SSR180711 (5.0 mg/kg, i.v.). […] At 0.5, 1.5, and 2 h after injection, imaging was performed in the Department of Nuclear Medicine, Peking University First Hospital, using SPECT (SPR SPECT; GE Healthcare, Inc.) equipped with a high-energy general purpose (HEGP) collimator. Static images (200,000 counts), obtained with a zoom factor of 2.0, were digitally stored in a 64 × 64 matrix.

α7 nAChRs = conditions: cited from earlier work
[2] = molecular target: T1, α7 nAChRs in the rat brain (Rattus norvegicus, UniProt Q05941); test: In vitro saturation binding assay of ^125I-CHIBA-1001 in rat brain membranes; conditions: 4°C, n = 5, mean ± S.E.M.
T1 construct: aliquots of a membrane suspension (200 µl), ^125I-CHIBA-1001 and the indicated concentrations of test drug; from tissue; host or cells: rat brain membranes (Sprague Dawley)
T1 sequence (Q05941 23-502): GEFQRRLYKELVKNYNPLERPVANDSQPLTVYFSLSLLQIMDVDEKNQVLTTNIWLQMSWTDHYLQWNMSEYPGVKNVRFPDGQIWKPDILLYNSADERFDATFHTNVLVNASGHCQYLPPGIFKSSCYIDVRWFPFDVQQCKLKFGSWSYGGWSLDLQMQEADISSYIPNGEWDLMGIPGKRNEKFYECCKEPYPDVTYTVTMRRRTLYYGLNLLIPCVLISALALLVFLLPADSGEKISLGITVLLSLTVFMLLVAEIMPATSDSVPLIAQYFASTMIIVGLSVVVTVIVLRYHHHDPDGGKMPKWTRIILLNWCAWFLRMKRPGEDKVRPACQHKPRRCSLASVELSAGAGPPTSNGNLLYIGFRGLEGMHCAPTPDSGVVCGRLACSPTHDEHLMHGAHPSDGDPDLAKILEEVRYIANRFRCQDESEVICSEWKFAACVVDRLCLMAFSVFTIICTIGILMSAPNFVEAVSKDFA
Procedure: Male SD (Sprague Dawley) rats (8–10 week olds, 180–200 g) were used for the experiments. After sacrificing the rats by decapitation, the brains were rapidly removed from the skulls.
The tissues of each brain region were homogenized in 15 volumes of 50 mM Tris–HCl buffer (120 mM NaCl, 2 mM KCl, 1 mM CaCl2, 1 mM MgCl 2, pH 7.4 at 4°C) using a Polytron homogenizer at setting No. 5 for 30s on ice. The membranes were centrifuged in 50 ml polypropylene tube at 48,000 g for 20 min at 4°C. The supernatant was discarded and the pellet re-suspended, homogenized and centrifuged as above. The membrane pellet was washed and re-suspended in ice-cold buffer and was then centrifuged two more times. The final pellet was re-suspended in 10 volumes of the same buffer.
Assays of the binding of ^125I-CHIBA-1001 to α7 nAChRs in the rat brain were performed according to the method published previously [21], [22]. The reaction mixtures were consisted of aliquots of a membrane suspension (200 µl), ^125I-CHIBA-1001 and the indicated concentrations of test drug in a final volume of 0.5 ml in duplicate. Non-specific binding was estimated in the presence of 30 µM SSR180711. Binding reaction was conducted for 150 min at 4°C for the equilibrium saturation and inhibition studies.

[3] = blocked cerebellum as nonspecific binding

Chain of α7 nAChRs in the monkey brain (Q866A2 23-502): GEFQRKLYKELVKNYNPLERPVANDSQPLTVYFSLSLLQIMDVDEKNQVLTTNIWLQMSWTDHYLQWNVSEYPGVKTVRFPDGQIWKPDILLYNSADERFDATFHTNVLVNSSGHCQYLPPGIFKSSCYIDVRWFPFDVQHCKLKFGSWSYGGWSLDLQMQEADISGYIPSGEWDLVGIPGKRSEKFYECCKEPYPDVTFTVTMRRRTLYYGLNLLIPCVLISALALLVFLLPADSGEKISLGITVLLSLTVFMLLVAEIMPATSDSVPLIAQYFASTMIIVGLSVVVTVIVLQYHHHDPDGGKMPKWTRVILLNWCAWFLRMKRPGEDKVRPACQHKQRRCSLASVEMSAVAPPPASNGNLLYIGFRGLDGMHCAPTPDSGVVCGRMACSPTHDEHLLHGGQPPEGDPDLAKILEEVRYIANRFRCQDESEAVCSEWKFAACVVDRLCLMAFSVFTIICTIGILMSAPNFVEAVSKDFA

blockade of ^131I-CHIBA-1001 uptake in the cerebellum [1]: minimal | decrease of specific binding of ^131I-CHIBA-1001 in the frontal cortex [1, 3]: 38.5±2.1% | decrease of specific binding of ^131I-CHIBA-1001 in the thalamus [1, 3]: 35.7±2.8%
Compound: O=C(Oc1ccc(Br)cc1)N1CCN2CCC1CC2 [SSR180711]
effect of pretreatment on uptake of ^131I-CHIBA-1001 radioactivity in the brain [1]: blocked the radioactive uptake in the brain successfully; also recorded: decreased

Compound: [^125I]methyllycaconitine [^125I-MLA]
Kd (α7 nAChRs): 1.8 nM

Compound: O=C(Oc1ccc(I)cc1)N1CCN2CCC1CC2 [^125I-CHIBA-1001]
Kd ([2]; read-out: apparent Kd): 81.9 ± 7.95 nM

Compound: O=C(Oc1ccc([125I])cc1)N1CCN2CCC1CC2 [^125I-CHIBA-1001]
B max [2]: 63.97±17.45 fmol/mg protein

From PMC3728097 (PLoS ONE, 2013)
